A short description of data set [1]: Nitrapyrin volatilization: weight loss on a heated balance at 100° C. Type of data set: physicochemical. The note with it: for weight as a percent of original weight: heated balance 100° C.; for nitrapyrin sulfolane volatility ratio: nitrapyrin without solvent vs. solvent alone. The method, then: Three materials were placed on a heated balance at […] and had their weights observed every minute for 10 minutes, as a percent of original weight. The materials were: • 1. pure nitrapyrin, • 2. 25% w/w solution of nitrapyrin in sulfolane, and • 3. solution of 25% nitrapyrin salt with equimolar (on acid basis) amount of maleic-itaconic copolymer, also in sulfolane (nitrapyrin/polyanionic polymer salt).
Therefore, the disclosed nitrapyrin-organic acid ionic mixtures substantially reduce the volatilization of nitrapyrin.
Tests were run to determine the relative volatility of the nitrapyrin solution without polyanionic polymer.

The nature of data set [2]: Formation of solutions of nitrapyrin salts at 20% w/w nitrapyrin and grading of solutions. The arrangement: key: 5: Fully dissolved; 4: Mostly dissolved; 3: Mostly not dissolved; 2: Not dissolved; 1: Additional precipitate. Type of data set: physicochemical. The source says:
Example 2. Formation of Solutions of Nitrapyrin Salts and Grading of Solutions

Where [3] appears, read: solvent A dipropylene glycol, 20% w/w nitrapyrin.
Setting [4] is: solvent B PT700, 20% w/w nitrapyrin.
[5] abbreviates: solvent C PT250, 20% w/w nitrapyrin.
Setting [6] is: solvent D triethylene glycol, 20% w/w nitrapyrin.
The mark [7] stands for this setting: solvent E tripropylene glycol, 20% w/w nitrapyrin.
Where [8] appears, read: solvent F propylene carbonate, 20% w/w nitrapyrin.
Setting [9] is: solvent G triacetin, 20% w/w nitrapyrin.
The mark [10] stands for this setting: solvent H Agnique AMD810, 20% w/w nitrapyrin.
[11] abbreviates: solvent I Agnique AMD3L, 20% w/w nitrapyrin.
The mark [12] stands for this setting: solvent J Rhodiasolv ADMA10, 20% w/w nitrapyrin.
[13] abbreviates: solvent K Rhodiasolv ADMA810, 20% w/w nitrapyrin.
[14] abbreviates: solvent L Rhodiasolv PolarClean, 20% w/w nitrapyrin.

Experimental findings from US20240389589A1, “CORROSION INHIBITORS FOR NITROGEN INHIBITOR FORMULATION” (Verdesian Life Sciences U.S., LLC, priority 2021, published 2024) are described below.

Regarding `Clc1cccc(C(Cl)(Cl)Cl)n1` [nitrapyrin without solvent, nitrapyrin], the “weight as a percent of original weight” value in data set [1] (experiment time 0 min) is on record as 100.00%; in data set [1] (experiment time 1 min), 99.20%; in data set [1] (experiment time 2 min), 98.56%; in data set [1] (experiment time 3 min), 97.92%; in data set [1] (experiment time 4 min) it was 96.00%; in data set [1] (experiment time 5 min), 94.87%. Further, the “weight as a percent of original weight” value is 93.75% in data set [1] (experiment time 6 min); 92.63% in data set [1] (experiment time 7 min); 90.87% in data set [1] (experiment time 8 min); 89.90% in data set [1] (experiment time 9 min); 89.10% in data set [1] (experiment time 10 min). In addition, the “nitrapyrin sulfolane volatility ratio” value is 401% in data set [1] (Delta 3-10), 392% in data set [1] (Delta 4-10) and 393% in data set [1] (Delta 5-10).
As for `O=C(O)CCC(=O)O` [succinic], the grade of solution in data set [2] (setting [3]) is listed as 3; in data set [2] (setting [4]) it was 4; in data set [2] (setting [5]) it was 1; in data set [2] (setting [6]), 2; in data set [2] (setting [7]), 3; in data set [2] (setting [8]), 3. The grade of solution in data set [2] (setting [9]) was determined as 2; in data set [2] (setting [10]), 5; in data set [2] (setting [11]), 5; in data set [2] (setting [12]) it was 5; in data set [2] (setting [13]), 5; in data set [2] (setting [14]), 5.
Consider `O=C(O)C(O)C(O)C(=O)O` (centres unmarked) [tartaric], for which the grade of solution in data set [2] (setting [3]) worked out at 2; in data set [2] (setting [4]) it was 2; in data set [2] (setting [5]), 1; in data set [2] (setting [6]), 1; in data set [2] (setting [7]), 2; in data set [2] (setting [8]) it was 2. The grade of solution in data set [2] (setting [9]) is 2; in data set [2] (setting [10]), 5; in data set [2] (setting [11]) it was 5; in data set [2] (setting [12]) it was 5; in data set [2] (setting [13]), 5; in data set [2] (setting [14]), 5.
With adipic, the grade of solution turned out to be 2 in data set [2] (setting [3]); 3 in data set [2] (setting [4]); 1 in data set [2] (setting [5]); 3 in data set [2] (setting [6]); 4 in data set [2] (setting [7]); 3 in data set [2] (setting [8]). In addition, the grade of solution in data set [2] (setting [9]) is 3; in data set [2] (setting [10]), 5; in data set [2] (setting [11]), 5; in data set [2] (setting [12]), 5; in data set [2] (setting [13]), 5; in data set [2] (setting [14]) it was 5.
Take malic: the grade of solution worked out at 2 in data set [2] (setting [3]); 4 in data set [2] (setting [4]); 1 in data set [2] (setting [5]); 2 in data set [2] (setting [6]); 2 in data set [2] (setting [7]); 3 in data set [2] (setting [8]). The grade of solution is listed as 3 in data set [2] (setting [9]); 5 in data set [2] (setting [10]); 5 in data set [2] (setting [11]); 5 in data set [2] (setting [12]); 5 in data set [2] (setting [13]); 5 in data set [2] (setting [14]).
